The nature of the test: Determination of GC-odor threshold values (gas chromatograph with sniff port, panel of trained evaluators). To be noted: absolute amount of compound delivered at the sniff port, identical conditions. The text has this: As used herein, “odor threshold value” means the lowest concentration of a vapour in the air which can be detected by smell. Generally speaking, it can be said that a compound with a low odor threshold value is more powerful than a compound with a high odor threshold value and thus allows the use of very low concentration in a fragrance composition to achieve an olfactory effect.
EXAMPLE 24: DETERMINATION OF GC-ODOR THRESHOLD VALUES
According to standard procedures known to the person skilled in the art, threshold values for volatile perfumery compounds are determined on a gas chromatograph equipped with a sniff port by a panel of trained evaluators. The lowest concentration smelled by each panelist is recorded as the individual threshold value expressed in ng (absolute amount of compound delivered at the sniff port).
Under identical conditions the odor threshold value for the individual compounds was measured.
The compound `CCCc1ccc2c(c1)CC(C)C2=O` (centres unmarked) [2-methyl-5-propyl-2,3-dihydro-1H-inden-1-one] came in with an odor threshold value of 0.98 ng.

Regarding `C=C(C)Cc1cccc2c1C(=O)C(C)C2` (centres unmarked) [2-methyl-7-(2-methylallyl)-2,3-dihydro-1H-inden-1-one], the odor threshold value is recorded as 4.96 ng. Turning to `CC1Cc2cccc(C3CC3)c2C1=O` (centres unmarked) [7-cyclopropyl-2-methyl-2,3-dihydro-1H-inden-1-one], the odor threshold value is listed as 4.31 ng. Turning to `CC(C)Cc1ccc2c(c1)CC(C)C2=O` (centres unmarked) [Comparison Example 1, 5-isobutyl-2-methyl-2,3-dihydro-1H-inden-1-one], the odor threshold value came to 1.56 ng. `CCCc1cccc2c1CC(C)C2=O` (centres unmarked) [Comparison Example 3, 2-methyl-4-propyl-2,3-dihydro-1H-inden-1-one]: the odor threshold value turned out to be 6.25 ng. In turn, `C=C(C)Cc1cccc2c1CC(C)C2=O` (centres unmarked) [Comparison Example 5, 2-methyl-4-(2-methylallyl)-2,3-dihydro-1H-inden-1-one] showed an odor threshold value of 6.25 ng.

The compound `CC1Cc2c(cccc2C2CC2)C1=O` (centres unmarked) [Comparison Example 7, 4-cyclopropyl-2-methyl-2,3-dihydro-1H-inden-1-one] displayed an odor threshold value of 31.7 ng. For `CC(C)Cc1ccc2c(c1)C(=O)C(C)C2` (centres unmarked) [Example 1, 6-isobutyl-2-methyl-2,3-dihydro-1H-inden-1-one], the odor threshold value amounted to 0.06 ng. As for `CCCc1ccc2c(c1)C(=O)C(C)C2` (centres unmarked) [Example 7, 2-methyl-6-propyl-2,3-dihydro-1H-inden-1-one], the figure is 0.04 ng. The compound `CC1Cc2ccc(C3CC3)cc2C1=O` (centres unmarked) [Example 11, 6-cyclopropyl-2-methyl-2,3-dihydro-1H-inden-1-one] returned an odor threshold value of 0.46 ng. The result for `C=C(C)Cc1ccc2c(c1)C(=O)C(C)C2` (centres unmarked) [Example 22, 2-methyl-6-(2-methylallyl)-2,3-dihydro-1H-inden-1-one] reads 0.24 ng.

For the origin of these results see patent US11020333B2, “Organic compounds” (Givaudan SA, priority 2016, dated 2021).
